Key:
[1] = tested on: IL-6 secretion in SW-982 synovial cells; experiment: IL-6 secretion in IL-1β-stimulated SW-982 synovial cells (ELISA); assay type: cell-based, human; conditions: SW-982, IL-1β 1 ng/mL, 6 hours; VR23 10 μM, HCQ 60 μM
Procedure: The mean±SEM (n=2) values were determined by a Dunnett's test.
(§1) The enzyme-linked immunosorbent assay (ELISA) is a quantitative measurement based on sandwich-based enzyme linking, using a protein-specific capture antibody to determine the levels of single or multiple chemokines and cytokines.
The measurement was carried out with a single-analyte ELISA. […] While not wishing to be limited by theory, cytokine IL-6 is strongly implicated to the progress of rheumatoid arthritis^29.

[2] = tested on: IL-1β, TNF-α, IL-6 and IL-8 secretion in THP-1 cells; experiment: Cytokine secretion in LPS-stimulated THP-1 cells (ELISA); assay type: cell-based, human; conditions: THP-1, LPS 5 μg/mL, 6 hours
Procedure: For comparison, BTZ (6 nM), CFZ (1 nM), and DEX (2 μM) were also included. *, **, and *** are p<0.05, p<0.01, and p<0.001, respectively, which denote a significant difference from the LPS-only group. The mean±SEM (n=3) values were determined by a Dunnett's test.
as §1
Data shown in FIG. 11 are the results of experiments carried out to investigate VR23's effect on the levels of inflammatory cytokines. […] For comparison, BTZ (6 nM), CFZ (1 nM) and DEX (2 μM) were also included. The levels of cytokine secreted in cell culture supernatants were measured by a single-analyte ELISA. The IC50 value of VR23 is 3 μM and the concentrations of BTZ, CFZ and DEX used are their respective IC50 values.

[3] = tested on: human fibroblast-like synoviocytes from healthy donors (HFLS-N); experiment: Viability test, HFLS-N cells; assay type: cell-based; conditions: 6 hours, IL-1β 10 ng/mL, VR23 2.5-10 μM
Procedure: (§2) The values presented are the mean±SEM (n=3).
(§3) The CCK-8 assay was used to count viable cells under the various treatment conditions. Briefly, cells were cultured in 11 columns of a 96-well clustered plate, with 5,000 cells in 100 μL of culture medium per well, excluding one column for a media-only control. The plate was incubated overnight at 37° C. in the humidified conditions, followed by treatment with test compounds diluted in the culture medium (10 μL). Each column was treated with a different condition so that each treatment could have 8 repeats. […] The absorbance was measured using an automatic plate reader (Synergy H4 Hybrid Multi-Mode Microplate Reader, BioTek, Montreal, Canada) at 450 nm wavelength. The cell viability of each treatment sample was determined by using the following equation (%)=(Abstrtmt-Absmedia)/(AbsuT-Absmedia)*100, where Abstrtmt is the absorbance value of cells with the various treatment conditions; Absmedia is the absorbance of the well containing media only; AbsuT is the absorbance of the wells with untreated cells.
(§4) This finding was extended to human cells relevant to autoimmune diseases. […] Cytokine levels in cell culture supernatants were determined by a single-analyte ELISA. […] The cytokine secretion was measured in cell culture supernatants by a single-analyte ELISA.

[4] = tested on: IL-8 secretion in THP-1 cells; experiment: IL-8 secretion in TNF-α-stimulated THP-1 cells (ELISA); assay type: cell-based, human; conditions: THP-1, TNF-α 10 ng/mL, 6 hours
Procedure: For comparison, BTZ (6 nM), CFZ (1 nM), and DEX (2 μM) were also included. *** is p<0.001, which denotes a significant difference from the TNF-α-only group, determined by a Dunnett's test. The values presented are the mean±SEM (n=3).
as §1
The data in FIG. 12 show the levels of IL-8 secreted in the THP-1 culture medium in response to TNF-α alone (10 ng/mL) or in combination with varying concentrations (0.5, 1.0, 2, 4 or 6 μM) of VR23. For comparison, BTZ (6 nM), CFZ (1 nM) and DEX (2 μM) were also included. The measurement time was 6-hour post-stimulation. The measurement was carried out with a single-analyte ELISA.

[5] = tested on: human fibroblast-like synoviocytes from rheumatoid arthritis patients (HFLS-RA); experiment: Viability test, HFLS-RA cells; assay type: cell-based; conditions: 6 hours, IL-1β 10 ng/mL, VR23 1.25-5.0 μM, HCQ 7.5-30 μM
Procedure: as §2, §3, §4

mouse organs / tumor = conditions: cited from earlier work
[6] = tested on: IL-6 secretion in HFLS-RA cells; experiment: IL-6 secretion in stimulated HFLS-RA cells (ELISA); assay type: cell-based, human; conditions: 6 hours
Procedure: The mean±SEM (n=3) values were determined by a Dunnett's test.
The values presented are the mean±SEM (n=2).
as §1
This finding was extended to human cells relevant to autoimmune diseases. Human fibroblast-like synoviocytes (HFLS) are present in the synovial fluid of joint capsules and produce harmful molecules that contribute to joint destruction and the exacerbation of the disease in rheumatoid arthritis patients. […] The cells were then stimulated with IL-1β (FIG. 16) or LPS (FIG. 17), in the absence (control; IL-1β only) or presence of VR23 or HCQ. HCQ was included for comparison because it is often used to treat rheumatoid arthritis. […] For “VR23 only” samples, 5 μM VR23 was used. Fifty thousand HFLS cells per mL were used for the experiment. Cytokine levels in cell culture supernatants were determined by a single-analyte ELISA. […] Fifty thousand HFLS cells per mL were used for the experiment. The cytokine secretion was measured in cell culture supernatants by a single-analyte ELISA.

For `O=[N+]([O-])c1ccc(S(=O)(=O)N2CCN(c3ccnc4cc(Cl)ccc34)CC2)c([N+](=O)[O-])c1` [VR23, 7-chloro-4-(4-(2,4-dinitrophenylsulfonyl)piperazin-1-yl)quinoline], the “secretion of IL-6” value [1] was “substantially reduced the secretion of IL-6”, the “level of IL-6 in response to LPS” value [2] was “especially effective on reducing the level of IL-6” and the “cytokine secretion, dose dependence” value ([2]; VR23 0.5, 1.0, 2, 3, 4 or 6 μM) was “decreased cytokine secretion in a dose dependent manner”. For the same compound, the “levels of inflammatory cytokines IL-1β, TNF-α, IL-6, IL-8” value ([2]; VR23 0.5-6 μM, BTZ 6 nM, CFZ 1 nM, DEX 2 μM) was “substantial and comparable anti-inflammatory activities”, the cell viability [3] was “none of the conditions examined significantly affected the viability” and the “level of IL-8” value ([4]; 0.5 μM) was “significantly (p<0.001) reduced the level of IL-8”. For the same compound, the IL-8 secretion ([4]; VR23 at IC50 concentration (between 2 and 4 μM), BTZ 6 nM, CFZ 1 nM) was “effectively reduces IL-8 secretion”, the cell viability [5] was “none of the conditions examined significantly affected the viability” and the anti-tumor activity (mouse organs / tumor; animal-based studies) was “strong anti-tumor activity”. For the same compound, the “toxicity to mouse organs” value (mouse organs / tumor; animal-based studies) was “without any notable toxic side effects to mouse organs”, the “toxic side effects of paclitaxel in combination” value (mouse organs / tumor; used in combination with paclitaxel (Tax)) was “reduces toxic side effects caused by paclitaxel” and the “IL-6 secretion, dose dependence” value ([6]; HFLS-RA, IL-1β 10 ng/mL, VR23 2.5-10 μM, HCQ 15 or 30 μM) was “decreases in a dose dependent manner”. For the same compound, the “secretion of IL-6” value ([6]; HFLS-RA, LPS 100 ng/mL, 5 or 10 μM) was “decreased substantially”, the “level of IL-6 secretion, HFLS-RA versus HFLS-N” value ([6]; IL-1β 10 ng/mL, VR23 5 μM) was “reduces the level of IL-6 secretion more effectively on HFLS-RA than HFLS-N” and the “IL-6 reduction, 5 μM VR23 versus 30 μM HCQ” value ([6]; synovial cells from rheumatoid arthritis patients, IL-1β or LPS) was “significantly more effective”.

— US11357774B2, “Use of a quinoline sulfonyl compound for treatment of inflammation, inflammatory disorders, autoimmune disorders and malaria” (priority 2019, dated 2022)
